Some test systems named below: A549; ACHN; COLO 205; EKVX; HCT-116; IGROV-1; K562; KM12; LOX IMVI; NCI-H460; OVCAR-5; RPMI-8226; RXF 393; SK-MEL-28; SK-MEL-2; SK-MEL-5; SN12C; UACC-257; UACC-62; UO-31.
What all share (assay): DTP human tumour cell line panel, 48 h

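Protocol summary: plate cells (96-well), add compound at 5 concentrations, incubate 48 h, interpolate endpoints linearly. Abbreviation: GI50, concentration required for 50% inhibition of growth.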 Active and inactive are the calls of the source. Rule as the data show it: active = GI50 up to about 1.1 µM and inactive = higher.

The term GI50 denotes the concentration giving 50% growth inhibition. For the compound `CC(C)=CC1(C)/C(=N\O)C(C)(CC(C)C)C(=O)N1O` (stereo not given), the GI50 in the test with A549, in the test with ACHN, in the test with COLO 205, in the test with EKVX, with HCT-116 and in the test with IGROV-1 was > 100 µM (inactive) in each case. For the same compound, the GI50 with K562, in the test with KM12, in the test with LOX IMVI, in the test on NCI-H460, in the test with OVCAR-5 and in the test with RPMI-8226 was > 100 µM (inactive) throughout. Also, the GI50 in the test on RXF 393, in the test on SK-MEL-28, in the test on SK-MEL-2, with SK-MEL-5, in the test on SN12C and in the test on UACC-257 was > 100 µM (inactive) in each case. For the same compound, the GI50 in the test on UACC-62 and in the test on UO-31 was > 100 µM (inactive) each time.
For the compound `C/C=C/C1=CC(=O)C(O)C1O` (stereo not given), the GI50 with A549 was 29 µM (inactive); in the test with COLO 205, 22 µM (inactive); with EKVX, 44.6 µM (inactive); with HCT-116, 26.2 µM (inactive); in the test with IGROV-1, 35.6 µM (inactive); in the test on K562, 30.6 µM (inactive). The GI50 is 15.3 µM (inactive) in the test with KM12; 16.5 µM (inactive) with LOX IMVI; 19.7 µM (inactive) in the test with NCI-H460; 39.7 µM (inactive) in the test with OVCAR-5; 22.1 µM (inactive) in the test on RPMI-8226; 15.1 µM (inactive) with RXF 393. In addition, the GI50 with SK-MEL-28 is 30.9 µM (inactive); in the test on SK-MEL-2 it was 36.5 µM (inactive); in the test with SK-MEL-5, 28.4 µM (inactive); with SN12C, 23.1 µM (inactive); in the test with UACC-257 it was 29.4 µM (inactive); with UACC-62, 26.6 µM (inactive). Also, the GI50 in the test with UO-31 is 32.2 µM (inactive).
Consider `CCOC(=O)NC(OCc1ccccc1)(C(=O)OC)C(F)(F)F` (stereo not given), for which the GI50 in the test with A549, in the test with ACHN, in the test with COLO 205, in the test on EKVX, in the test with HCT-116 and with IGROV-1 was > 100 µM (inactive) each time. Further, the GI50 with K562, in the test on KM12, in the test on LOX IMVI, in the test on NCI-H460, in the test with OVCAR-5 and in the test with RPMI-8226 was > 100 µM (inactive) each time. The GI50 with RXF 393, in the test on SK-MEL-28, in the test with SK-MEL-2, with SK-MEL-5, in the test on SN12C and in the test with UACC-257 was > 100 µM (inactive) throughout. Besides, the GI50 in the test on UACC-62 and with UO-31 was > 100 µM (inactive) throughout.
In the case of `OCCCC(O)(c1ccccc1)c1ccccc1`, the GI50 in the test with A549, with ACHN, in the test with EKVX, with IGROV-1, in the test on K562 and in the test with KM12 was > 100 µM (inactive) in each case. Moreover, the GI50 with LOX IMVI, with NCI-H460, in the test on OVCAR-5, with RPMI-8226, with RXF 393 and with SK-MEL-28 was > 100 µM (inactive) throughout. The GI50 in the test on SK-MEL-2, in the test on SK-MEL-5, with SN12C, in the test with UACC-257, in the test on UACC-62 and in the test on UO-31 was > 100 µM (inactive) in each case.
Take `CCCCCCCSc1nc2c(C(=O)OCC)ncn2c2ccccc12`: the GI50 in the test on ACHN, in the test with COLO 205, with EKVX, with HCT-116, in the test on IGROV-1 and with K562 was > 100 µM (inactive) each time. Moreover, the GI50 in the test on KM12, in the test on LOX IMVI, in the test with NCI-H460, with OVCAR-5, with RPMI-8226 and with RXF 393 was > 100 µM (inactive) each time. The GI50 with SK-MEL-28, in the test on SK-MEL-2, in the test with SN12C, in the test with UACC-257, in the test with UACC-62 and in the test with UO-31 was > 100 µM (inactive) throughout.
Consider `Fc1ccc2c(c1)SC1=Nc3sc4cc(F)ccc4[n+]3CN12`, for which the GI50 is 12.4 µM (inactive) with A549; 20.6 µM (inactive) in the test on ACHN; 26.9 µM (inactive) with COLO 205; 28 µM (inactive) in the test with EKVX; 22.5 µM (inactive) with HCT-116; 3.91 µM (inactive) with IGROV-1. Moreover, the GI50 is 14.3 µM (inactive) in the test on K562; 18.4 µM (inactive) in the test on LOX IMVI; 25.5 µM (inactive) in the test on NCI-H460; 25.7 µM (inactive) with OVCAR-5; 0.437 µM (active) in the test with RPMI-8226; 26.5 µM (inactive) with RXF 393. Also, the GI50 in the test with SK-MEL-28 was 39.6 µM (inactive); in the test on SK-MEL-2, 21.4 µM (inactive); in the test with SK-MEL-5 it was 11.1 µM (inactive); in the test on SN12C, 17.3 µM (inactive); in the test with UACC-257, 18.9 µM (inactive); in the test on UACC-62 it was 11.1 µM (inactive). Also, in the test on UO-31, the GI50 was 19.1 µM (inactive).
For `Cc1csc(/N=C(/NCCN2CCOCC2)Nc2nc(C)cs2)n1`, the GI50 is > 100 µM (inactive) in the test on A549; > 100 µM (inactive) in the test with COLO 205; > 87.9 µM (inactive) in the test on EKVX; > 70.1 µM (inactive) in the test on HCT-116; > 100 µM (inactive) with IGROV-1; > 100 µM (inactive) in the test on K562. In addition, the GI50 in the test with KM12, in the test with LOX IMVI, in the test on NCI-H460, with OVCAR-5, in the test on RPMI-8226 and in the test on RXF 393 was > 100 µM (inactive) each time. Moreover, the GI50 in the test with SK-MEL-28, in the test on SK-MEL-2, in the test on SK-MEL-5, in the test on SN12C, in the test with UACC-257 and in the test with UACC-62 was > 100 µM (inactive) throughout. In addition, the GI50 in the test on UO-31 is > 100 µM (inactive).
On to `C[C@H](O)C(=O)SC[C@H](NC(=O)CC[C@@H](N)C(=O)O)C(=O)NCC(=O)O`, for which the GI50 in the test on ACHN, in the test on COLO 205, in the test with EKVX, in the test with HCT-116, with IGROV-1 and with K562 was > 100 µM (inactive) each time. Moreover, the GI50 in the test on KM12, in the test on LOX IMVI, in the test with NCI-H460, in the test with OVCAR-5, in the test with RPMI-8226 and in the test on RXF 393 was > 100 µM (inactive) each time. The GI50 in the test with SK-MEL-28, in the test with SK-MEL-2, in the test on SK-MEL-5, in the test with SN12C, with UACC-257 and in the test with UACC-62 was > 100 µM (inactive) throughout. Further, the GI50 with UO-31 is > 100 µM (inactive).
For `COC(=O)C(C/C=C(\C)c1ccc(Cl)cc1)C(C)=O` (stereo not given), the GI50 is 31 µM (inactive) in the test on A549; 59.8 µM (inactive) in the test with COLO 205; 54.5 µM (inactive) in the test with EKVX; 41.7 µM (inactive) with HCT-116; 53.6 µM (inactive) in the test on IGROV-1; 36.4 µM (inactive) with K562. The GI50 is 37 µM (inactive) in the test on KM12; 14.9 µM (inactive) with LOX IMVI; > 100 µM (inactive) in the test on NCI-H460; 16.4 µM (inactive) in the test on OVCAR-5; 24.2 µM (inactive) in the test with RPMI-8226; 26.7 µM (inactive) in the test on RXF 393. In addition, the GI50 with SK-MEL-28 was 61.5 µM (inactive); in the test on SK-MEL-2, 5.53 µM (inactive); in the test on SK-MEL-5, 21.3 µM (inactive); with SN12C, 56 µM (inactive); with UACC-257 it was 23 µM (inactive); in the test on UACC-62, 38.5 µM (inactive). Also, the GI50 in the test on UO-31 is 22.9 µM (inactive).
As for `C=CC(C)C1(CCCOCc2ccccc2)C(=S)N2CCC3(CC24CCCC14)OCCO3` (stereo not given), the GI50 was 16 µM (inactive) in the test on A549; 9.84 µM (inactive) with ACHN; 28.5 µM (inactive) with COLO 205; > 100 µM (inactive) in the test on EKVX; > 100 µM (inactive) in the test on IGROV-1; 4.84 µM (inactive) in the test on K562. Besides, the GI50 in the test with KM12 is 12.9 µM (inactive); with LOX IMVI, 54.3 µM (inactive); in the test on NCI-H460, 26.3 µM (inactive); in the test with OVCAR-5, > 100 µM (inactive); in the test on RPMI-8226, 2.72 µM (inactive); in the test with RXF 393, 6.46 µM (inactive). Further, the GI50 in the test on SK-MEL-28 is 14.3 µM (inactive); in the test with SK-MEL-2 it was 12.2 µM (inactive); in the test on SK-MEL-5, 5.61 µM (inactive); with SN12C, 91.6 µM (inactive); in the test on UACC-257, 9.68 µM (inactive); in the test on UACC-62, > 100 µM (inactive). Besides, the GI50 in the test with UO-31 is 28.8 µM (inactive).

The values are drawn from ChEMBL document CHEMBL1201862, “PubChem BioAssay data set” (2004).
